Here are results for 5 compounds from patent publication US20250237642A1 (priority 2022, published 2025).

The target in one test is T109 mutant (Hepatitis B virus genotype D subtype ayw, UniProt P03146, T109I).
For another test, the target named is HBV wild-type (Hepatitis B virus genotype D subtype ayw, UniProt P03146).
For test [1], the target named is HBV core protein mutants (Hepatitis B virus genotype D subtype ayw, UniProt P03146, T33Q). As to conditions: cited from earlier work.
The target of test [2] is HBV core protein mutants (Hepatitis B virus genotype D subtype ayw, UniProt P03146, L30F). As to conditions: cited from earlier work.
The target of test [3] is HBV core protein mutants (Hepatitis B virus genotype D subtype ayw, UniProt P03146, F23Y). As to conditions: cited from earlier work.
Test [4] has as its target HBV core protein mutants (Hepatitis B virus genotype D subtype ayw, UniProt P03146, F110I). The settings on record: cited from earlier work.
In test [5] the target is HBV core protein mutants (Hepatitis B virus genotype D subtype ayw, UniProt P03146, T109I). As to conditions: cited from earlier work.
Test [6] has as its target HBV core protein mutants (Hepatitis B virus genotype D subtype ayw, UniProt P03146, T128I). The settings on record: cited from earlier work.
In test [7] the target is HBV core protein mutants (Hepatitis B virus genotype D subtype ayw, UniProt P03146, L140I). The settings on record: cited from earlier work.
The subject of another test is HIV-RT M184V and M184I. The settings on record: cited from earlier work.
Test [8] deals with T1, HIV-RT Q151M mutation (Human immunodeficiency virus type 1 group M subtype B, UniProt P03366, Q750M). As to conditions: cited from earlier work.
For test [9], the target named is T1, HIV-RT Q151M mutation. The settings on record: cited from earlier work. The source holds these as a separate data set.

In the case of `C#CCNC(=O)C(=O)c1c(C)c(C(=O)Nc2ccc(F)c(F)c2)n(C)c1C` [GLP-26], the “Reduction of cccDNA” value on T109 mutant was “susceptible”. Also, the “Effect on HBeAg production (sensitive / resistant)” value at HBV wild-type was “Sensitive”.

Consider `COC(=O)C1=C(C)NC(c2ncc(F)cc2F)=N[C@H]1c1ccc(F)cc1Cl` [BAY41-4109], for which the Reported resistance mutation result is “resistance mutation” on HBV core protein mutants [1], “resistance mutations” on HBV core protein mutants [2], “resistance mutations” at HBV core protein mutants [3] and “reported” at HBV core protein mutants [4].

As to `CCOC(=O)C1=C(CN2CCOCC2)NC(c2nccs2)=NC1c1ccc(F)cc1Br` (stereo not drawn) [GLS4], the Reported resistance mutation entry on HBV core protein mutants [5] is given as “resistant”.

Turning to `C[C@H](NS(=O)(=O)c1cc(C(=O)Nc2ccc(F)c(C#N)c2)n(C)c1)C(F)(F)F` [JNJ-6379], the Reported resistance mutation entry on HBV core protein mutants [6] is reported as “reported”; at HBV core protein mutants [7], “reported”; at HBV core protein mutants [2] it was “resistance mutations”; on HBV core protein mutants [3] it was “resistance mutations”; on HBV core protein mutants [4], “reported”.

Take `Nc1nc(=O)n([C@@H]2CS[C@H](CO)O2)cc1F` [(-)-FTC, emtricitabine]: the fold resistance in the test on HIV-RT M184V and M184I is given as 500-1000 fold. In addition, the “fold reduction of EC50” value at HIV-RT Q151M mutation [8] is 2 fold. Besides, the Enzymatic sensitivity entry on HIV-RT Q151M mutation [9] is recorded as “remains sensitive”.
